Source: patent publication US7473699B2, “3-cyclyl-5-(nitrogen-containing 5-membered ring)methyl-oxazolidinone derivatives and their use as antibacterial agents” (AstraZeneca AB, priority 2002, dated 2009)
Converted amounts (≈) assume the structure as drawn. Read-outs that look alike come from different tables or passages of the source.

Key:
Moraxella catarrhalis = test: MIC, fastidious Gram negative organisms in Mueller-Hinton broth, Moraxella catarrhalis; type: cell-based
Protocol: (§1) The following results were obtained on a standard in-vitro test system. The activity is described in terms of the minimum inhibitory concentration (MIC) determined by the agar-dilution technique with an inoculum size of 10^4 CFU/spot. Typically, compounds are active in the range 0.01 to 256 μg/ml.
(§2) Streptococci and enterococci were tested on agar supplemented with 5% defibrinated horse blood, an inoculum of 10^4 CFU/spot and an incubation temperature of 37° C. in an atmosphere of 5% carbon dioxide for 48 hours—blood is required for the growth of some of the test organisms. Fastidious Gram negative organisms were tested in Mueller-Hinton broth, supplemented with hemin and NAD, grown aerobically for 24 hours at 37° C., and with an innoculum of 5×10^4 CFU/well.

Haemophilus influenzae = test: MIC, fastidious Gram negative organisms in Mueller-Hinton broth, Haemophilus influenzae; type: cell-based
Protocol: as §1, §2

[1] = system: Staphylococcus aureus MSQS; test: MIC, agar-dilution, Staphylococcus aureus MSQS; type: cell-based; details: Staphylococcus aureus MSQS (methicillin sensitive and quinolone sensitive)
Protocol: as §1
(§3) Staphylococci were tested on agar, using an inoculum of 10^4 CFU/spot and an incubation temperature of 37° C. for 24 hours—standard test conditions for the expression of methicillin resistance.

[2] = system: Staphylococcus aureus MRQR; test: MIC, agar-dilution, Staphylococcus aureus MRQR; type: cell-based; details: Staphylococcus aureus MRQR (methicillin resistant and quinolone resistant)
Protocol: as §1, §3

Streptococcus pneumoniae = test: MIC, agar-dilution, Streptococcus pneumoniae; type: cell-based
Protocol: as §1, §2

Streptococcus pyogenes = test: MIC, agar-dilution, Streptococcus pyogenes; type: cell-based
Protocol: as §1, §2

MAO-A = molecular target: T1, MAO-A (Homo sapiens, UniProt P21397); test: MAO-A standard in-vitro assay, human liver enzyme expressed in yeast; type: biochemical
T1 construct: made in house; host or cells: yeast
T1 sequence (P21397 1-527): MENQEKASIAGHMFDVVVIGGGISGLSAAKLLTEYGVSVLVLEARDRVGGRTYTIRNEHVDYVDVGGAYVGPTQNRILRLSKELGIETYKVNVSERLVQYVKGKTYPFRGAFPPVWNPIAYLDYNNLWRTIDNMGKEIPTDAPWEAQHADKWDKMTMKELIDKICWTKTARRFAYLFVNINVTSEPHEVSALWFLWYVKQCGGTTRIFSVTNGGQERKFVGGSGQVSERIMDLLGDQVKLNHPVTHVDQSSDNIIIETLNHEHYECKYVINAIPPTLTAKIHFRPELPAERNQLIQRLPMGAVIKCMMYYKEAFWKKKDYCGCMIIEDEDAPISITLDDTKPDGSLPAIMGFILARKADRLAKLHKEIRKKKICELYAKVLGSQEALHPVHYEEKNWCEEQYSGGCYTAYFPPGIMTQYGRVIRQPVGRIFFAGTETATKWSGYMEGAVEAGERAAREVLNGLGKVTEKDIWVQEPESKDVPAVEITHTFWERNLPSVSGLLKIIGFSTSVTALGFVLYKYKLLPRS
Protocol: The activity of the compounds of the invention against MAO-A was tested using a standard in-vitro assay based on human liver enzyme expressed in yeast as described in Biochem. Biophys. Res. Commun. 1991, 181, 1084-1088. Ki values were determined using serial two-fold dilutions from […] to 0.04 μM.

[3] = first line (strain not given), read-out: MIC

MIC (Moraxella catarrhalis) | MIC (Haemophilus influenzae) | MIC [1] | MIC [2] | MIC (Streptococcus pneumoniae; [3]) | MIC (Streptococcus pneumoniae; second line (strain not given)) | MIC (Streptococcus pyogenes) | Ki (MAO-A) | SMILES
2 µg/mL | 2 µg/mL | 2 µg/mL | 4 µg/mL | 0.5 µg/mL | 0.5 µg/mL | 1 µg/mL | 16 µM | Cc1cn(C[C@H]2CN(c3ccc(C4=CC[S+]([O-])CC4)c(F)c3)C(=O)O2)nn1 (mixture of isomers) [Example 1, (5R)-3-[4-(1(R,S)-Oxo-3,6-dihydro-2H-thiopyran-4-yl)-3-fluorophenyl]-5-[(4-methyl)-1,2,3-triazol-1-ylmethyl]oxazolidin-2-one]
2 µg/mL (≈ 5.31 µM) | 4 µg/mL (≈ 10.6 µM) | 2 µg/mL (≈ 5.31 µM) | 2 µg/mL (≈ 5.31 µM) | 1 µg/mL (≈ 2.66 µM) | 1 µg/mL (≈ 2.66 µM) | 1 µg/mL (≈ 2.66 µM) | 3.6 µM | O=C1O[C@@H](Cn2ccnn2)CN1c1ccc(C2=CC[S+]([O-])CC2)c(F)c1 (some centres unmarked) [Reference Example 1]
– | – | – | – | – | – | – | 0.5 µM | CC(=O)NC[C@H]1CN(c2ccc(C3=CC[S+]([O-])CC3)c(F)c2)C(=O)O1 (some centres unmarked) [Reference Example 2]
